The values below come from article PMC3297592, “Metabolism of Phosphatidylinositol 4-Kinase IIIα-Dependent PI4P Is Subverted by HCV and Is Targeted by a 4-Anilino Quinazoline with Antiviral Activity” (PLoS Pathogens, 2012).

The IC50 is the concentration that inhibits the measured activity by half. The term inhibition denotes the relative decrease from the control value, in per cent. Low values mean a response near the control, high ones a response far below the control.

Experiment in all cases: ADP-Glo kinase assay
Assay type in all cases: biochemical
For orientation: ADP-Glo turns the ADP formed in a reaction into a luminescent signal.

The target of assay [1] is T1, PI4KIIIα-CD (catalytic domain of PI4KIIIα) (Homo sapiens, UniProt P42356).
T1 construct: gene PI4KA; catalytic domain from G873 to the natural C-terminus, N-terminal His6 tag (pFastBac HT-B) kept, Sf9 / baculovirus, Ni-Sepharose; primer adds start ATG GGG (MGMMQCVI...); ends ...NDIPY
T1 sequence (P42356 931-2102): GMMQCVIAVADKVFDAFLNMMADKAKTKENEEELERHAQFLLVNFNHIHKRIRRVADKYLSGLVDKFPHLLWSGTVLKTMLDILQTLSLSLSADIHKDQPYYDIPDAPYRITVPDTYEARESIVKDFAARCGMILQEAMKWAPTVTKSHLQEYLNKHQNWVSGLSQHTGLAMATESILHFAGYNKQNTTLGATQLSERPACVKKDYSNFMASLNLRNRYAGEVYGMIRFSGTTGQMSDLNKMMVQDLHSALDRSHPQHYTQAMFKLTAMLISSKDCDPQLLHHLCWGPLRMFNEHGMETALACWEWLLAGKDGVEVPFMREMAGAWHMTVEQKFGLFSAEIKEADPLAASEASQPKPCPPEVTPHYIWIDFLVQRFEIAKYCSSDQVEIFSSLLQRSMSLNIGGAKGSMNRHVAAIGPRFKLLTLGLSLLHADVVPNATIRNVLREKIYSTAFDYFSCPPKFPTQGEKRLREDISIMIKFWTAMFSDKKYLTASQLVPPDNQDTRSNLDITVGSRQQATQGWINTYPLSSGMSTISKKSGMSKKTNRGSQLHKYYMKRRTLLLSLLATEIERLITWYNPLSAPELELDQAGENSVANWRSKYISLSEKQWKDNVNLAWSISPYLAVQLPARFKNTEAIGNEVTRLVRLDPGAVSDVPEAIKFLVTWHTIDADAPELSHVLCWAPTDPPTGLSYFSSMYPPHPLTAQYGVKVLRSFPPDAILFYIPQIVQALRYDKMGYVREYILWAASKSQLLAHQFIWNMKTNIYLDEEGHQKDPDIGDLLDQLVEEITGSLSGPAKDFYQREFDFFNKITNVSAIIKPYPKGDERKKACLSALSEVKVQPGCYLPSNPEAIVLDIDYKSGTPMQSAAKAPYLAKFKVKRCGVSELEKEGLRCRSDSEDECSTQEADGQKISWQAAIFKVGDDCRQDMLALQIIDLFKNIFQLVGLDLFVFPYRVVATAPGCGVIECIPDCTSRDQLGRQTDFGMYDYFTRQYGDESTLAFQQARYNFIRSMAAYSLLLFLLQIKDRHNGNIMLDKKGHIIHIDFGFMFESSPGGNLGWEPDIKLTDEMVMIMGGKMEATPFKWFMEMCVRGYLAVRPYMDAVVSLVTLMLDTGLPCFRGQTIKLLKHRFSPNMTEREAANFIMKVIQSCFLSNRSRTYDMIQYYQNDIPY

The target in the next assay is T2, PI3Kβ (p110β/p85α) (Homo sapiens, UniProt P42338).
T2 construct: gene PIK3CB; commercial purified p110β/p85α heterodimer (Millipore); with Phosphatidylinositol 3-kinase regulatory subunit alpha
T2 sequence (P42338 whole entry): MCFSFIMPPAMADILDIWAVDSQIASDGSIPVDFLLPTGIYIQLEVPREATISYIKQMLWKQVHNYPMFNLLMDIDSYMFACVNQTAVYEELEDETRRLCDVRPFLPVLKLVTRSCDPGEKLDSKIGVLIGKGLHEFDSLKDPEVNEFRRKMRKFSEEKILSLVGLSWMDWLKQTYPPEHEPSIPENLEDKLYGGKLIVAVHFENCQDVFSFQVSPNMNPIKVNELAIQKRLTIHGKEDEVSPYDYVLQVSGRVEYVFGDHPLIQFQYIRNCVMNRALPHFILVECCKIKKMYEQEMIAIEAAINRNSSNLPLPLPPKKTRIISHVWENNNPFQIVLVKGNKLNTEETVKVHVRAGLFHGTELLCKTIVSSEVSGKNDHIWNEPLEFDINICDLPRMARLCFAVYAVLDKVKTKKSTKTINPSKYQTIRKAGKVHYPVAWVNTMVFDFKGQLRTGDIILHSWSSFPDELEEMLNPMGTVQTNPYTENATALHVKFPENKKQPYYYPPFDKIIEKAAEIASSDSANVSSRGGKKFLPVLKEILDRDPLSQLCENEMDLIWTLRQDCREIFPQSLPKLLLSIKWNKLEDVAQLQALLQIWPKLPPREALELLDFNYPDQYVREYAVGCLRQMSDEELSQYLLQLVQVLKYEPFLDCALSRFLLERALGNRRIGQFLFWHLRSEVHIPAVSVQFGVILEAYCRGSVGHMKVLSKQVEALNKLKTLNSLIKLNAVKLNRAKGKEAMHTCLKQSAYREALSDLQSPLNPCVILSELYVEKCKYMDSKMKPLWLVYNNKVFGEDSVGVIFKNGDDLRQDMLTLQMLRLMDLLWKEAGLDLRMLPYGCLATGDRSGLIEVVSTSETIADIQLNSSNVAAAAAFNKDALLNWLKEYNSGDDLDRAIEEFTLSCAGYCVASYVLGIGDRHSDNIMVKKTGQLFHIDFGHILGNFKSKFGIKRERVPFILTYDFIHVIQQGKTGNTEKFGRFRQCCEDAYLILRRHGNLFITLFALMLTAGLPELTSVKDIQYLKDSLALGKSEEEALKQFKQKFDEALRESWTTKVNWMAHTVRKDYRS
T2 sequence (P27986 2-724 partner): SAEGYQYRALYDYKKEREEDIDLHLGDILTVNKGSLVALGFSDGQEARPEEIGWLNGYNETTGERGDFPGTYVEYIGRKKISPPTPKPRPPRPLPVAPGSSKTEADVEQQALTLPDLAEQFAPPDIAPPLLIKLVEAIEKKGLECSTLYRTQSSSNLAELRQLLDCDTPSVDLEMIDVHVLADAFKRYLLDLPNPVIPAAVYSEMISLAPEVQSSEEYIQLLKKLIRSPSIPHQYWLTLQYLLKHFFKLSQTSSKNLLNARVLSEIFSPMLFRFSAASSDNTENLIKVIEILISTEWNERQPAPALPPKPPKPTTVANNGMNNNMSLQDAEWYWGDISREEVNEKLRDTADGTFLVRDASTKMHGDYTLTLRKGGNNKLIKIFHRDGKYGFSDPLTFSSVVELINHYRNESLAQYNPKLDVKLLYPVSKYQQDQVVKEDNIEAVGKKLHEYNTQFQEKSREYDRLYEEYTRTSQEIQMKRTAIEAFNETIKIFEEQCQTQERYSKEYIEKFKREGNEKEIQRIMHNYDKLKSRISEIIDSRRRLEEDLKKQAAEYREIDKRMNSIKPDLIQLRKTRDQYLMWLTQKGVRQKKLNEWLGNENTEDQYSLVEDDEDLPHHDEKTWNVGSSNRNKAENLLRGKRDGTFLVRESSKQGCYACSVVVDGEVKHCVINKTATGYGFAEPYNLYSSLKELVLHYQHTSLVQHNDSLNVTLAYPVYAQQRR

For another assay, the target named is T3, PI3Kα (p110α/p85α) (Homo sapiens, UniProt P42336).
T3 construct: gene PIK3CA; commercial purified p110α/p85α heterodimer (Millipore); with Phosphatidylinositol 3-kinase regulatory subunit alpha
T3 sequence (P42336 whole entry): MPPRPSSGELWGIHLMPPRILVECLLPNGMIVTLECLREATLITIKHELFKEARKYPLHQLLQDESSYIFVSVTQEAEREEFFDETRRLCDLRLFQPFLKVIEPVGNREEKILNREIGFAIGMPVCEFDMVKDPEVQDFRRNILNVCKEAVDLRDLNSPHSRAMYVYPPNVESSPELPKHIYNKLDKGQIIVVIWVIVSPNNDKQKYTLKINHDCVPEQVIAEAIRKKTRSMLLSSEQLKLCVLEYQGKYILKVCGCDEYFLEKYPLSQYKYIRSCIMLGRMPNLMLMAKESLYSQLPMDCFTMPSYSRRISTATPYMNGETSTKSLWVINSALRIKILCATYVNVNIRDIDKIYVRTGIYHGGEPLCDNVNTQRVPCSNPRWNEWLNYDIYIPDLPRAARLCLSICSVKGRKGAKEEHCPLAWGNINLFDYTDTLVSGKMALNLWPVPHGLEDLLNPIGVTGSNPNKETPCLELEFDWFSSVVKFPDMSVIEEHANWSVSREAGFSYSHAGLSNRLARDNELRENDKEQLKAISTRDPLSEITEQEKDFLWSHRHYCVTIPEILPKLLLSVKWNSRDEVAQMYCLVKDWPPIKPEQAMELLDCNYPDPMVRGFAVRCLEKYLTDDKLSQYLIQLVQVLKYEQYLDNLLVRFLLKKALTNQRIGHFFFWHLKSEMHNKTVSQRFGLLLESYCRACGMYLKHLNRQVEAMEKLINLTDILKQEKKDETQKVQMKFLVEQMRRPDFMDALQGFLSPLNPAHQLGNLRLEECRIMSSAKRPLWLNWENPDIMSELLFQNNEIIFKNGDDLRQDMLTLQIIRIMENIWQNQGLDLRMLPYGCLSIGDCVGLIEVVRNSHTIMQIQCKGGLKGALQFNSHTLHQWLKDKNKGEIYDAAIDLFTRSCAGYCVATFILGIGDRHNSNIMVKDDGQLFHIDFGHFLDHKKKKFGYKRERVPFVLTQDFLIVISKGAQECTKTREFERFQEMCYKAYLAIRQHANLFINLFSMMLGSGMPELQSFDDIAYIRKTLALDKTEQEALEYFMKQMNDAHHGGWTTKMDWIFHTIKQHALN
T3 sequence (P27986 2-724 partner): as the sequence (P27986 2-724 partner) above

Take `OCc1ccc(-c2ccc3ncnc(Nc4ccc(N5CCOCC5)cc4)c3c2)o1` [AL-9]: the IC50 stood at 570 nM in assay [1] and 1100 nM on PI3Kα (p110α/p85α). This compound showed an inhibition at 10 µM against PI3Kβ (p110β/p85α) of 40%.
